Assay results taken from patent US20250223306A1, “TEAD INHIBITORS AND METHODS OF USE” (Sporos BioDiscovery, Inc., priority 2022, published 2025).
pIC50: −log10 of the molar value.

Assays:
NCI-H226 cells [1] = experiment: Proliferation and cell viability, CellTiter-Glo 2.0 (CTG) assay; assay type: cell-based; conditions: 144 hrs
Protocol: (§1) Cell proliferation of a TEAD dependent NF2-null mesothelioma cell line, NCI-H226, and a TEAD-non-dependent mesothelioma cell line, NCI-H28 was assayed using two different protocols: • a) CellTiter-Glo 2.0 (Promega #G9243). The effect of the TEAD inhibitors disclosed herein on cell proliferation was determined in TEAD1-genetically dependent cell line NCI-H226 (responder cell line) and TEAD-independent cell lines (NCI-H23, HEK293T), as non-responder, negative control. Cells were seeded in 96-well plates (Thermo Scientific #167008) in growth media (RPMI-1640, Gibco #61870-010) for NCI-H226 and NCI-H23 or DMEM (Gibco #31966-021, HEK293T) with 10% Heat Inactivated Fetal Bovine Serum (Gibco 10500-064) at 800 (NCI-H226 and HEK-293T) or 2000 (NCI-H23) cells per well at 37° C., 5% CO2, humidified incubator; 24 hours later, fresh growth media containing test compound or DMSO vehicle was added and incubated with the cells for 144 hrs. TEAD inhibitor stocks were made at a 1000× fold excess in DMSO, and a dose response test compound dose range of 10,000 to 0.1 nM was used. Each treatment was carried out in triplicate. After 144 hrs of treatment, relative cell viability numbers were determined using the CellTiter-Glo 2.0 assay following the manufacturer's instructions. Test plates and CellTiter-Glo 2.0 reagent were allowed to equilibrate to room temperature. CellTiter-Glo 2.0 reagent was added at 1:1 reagent to media ratio to the 96-well cell plates, plates were placed on a plate shaker for 2 minutes and then incubated at room temperature for a further 10 minutes to allow complete cell lysis to occur. The mix was then transferred to white, 96-well luminometer assay plates (Greiner Bio One #655075). Luminescence was quantified using a CLARIOStar Plus multi-mode plate reader (BMG Labtech) in luminescence detection mode with the recommended settings (ultra-Glo pre-set: emission 545-50 nm with autofocus and enhanced dynamic range on). Relative cell density was expressed as a function of inhibitor concentration, with respect to DMSO-only control wells. Data where plotted using GraphPad Prism and IC50 values for the biological effect were calculated using the EC50 non-linear fit function using a sigmoidal, 4-parameter logistic, least squares fit with no constraints. • b) Cell Titer One (Promega, #G3582). The effect of the TEAD inhibitors disclosed herein on cell proliferation was also determined using the Promega Substrate Cell Titer Aqueous One Solution Reagent. The TEAD inhibitors were evaluated for the effects on cell proliferation responder (H226) and non-responder negative control cancer cell lines (CAMA1, H28), as well as non-transformed normal human cells (HUVEC, NHDF). Dissociated cells were resuspend in media (depending on cell line, either in DMEM, RPMI, or EMEM all with 10% FBS, with gentamicin as an antibiotic). Cells were seeded at 100 μL/well at 750 cells per well in 96-well plates and allowed to settle and attach. After an incubation of 24 hrs (37° C., 5% CO2, humidified incubator), 100 μL of test compound-containing media was added. A dilution series of 2000× concentrated stock of test compounds was prepared in DMSO, for final concentrations from 0.1 to 10,000 nM. After addition of test compound-containing media, cells were incubated for 6 days at 37° C., 5% CO2, humidified incubators). To measure cell density, 20 μL of Promega Substrate Cell Titer 96 Aqueous One Solution Reagent (Promega, #G3582) to each well was added according to the manufacturer's instructions. Plates were incubated at 37° C. for usually 3-8 hrs, to reach in the control cells (without compound) an OD of 1.5 at 490 nm. The OD was measured using Vmax [Molecular Devices] spectrophotometer plate reader. Media only-wells were used as background controls and cell densities normalized to DMSO vehicle control. ECs were taken as the concentration achieving 50% of maximal growth inhibition.

NCI-H226 cells [2] = experiment: Proliferation, Cell Titer One assay; assay type: cell-based; conditions: 6 days
Protocol: as §1

NCI-H23 cells = experiment: Proliferation and cell viability, CellTiter-Glo 2.0 (CTG) assay; assay type: cell-based; conditions: 144 hrs
Protocol: as §1

TEAD1 = TEAD1 (Homo sapiens, UniProt P28347); experiment: TEAD thermal shift assay (TSA); assay type: binding
TEAD1, sequence (P28347 whole entry): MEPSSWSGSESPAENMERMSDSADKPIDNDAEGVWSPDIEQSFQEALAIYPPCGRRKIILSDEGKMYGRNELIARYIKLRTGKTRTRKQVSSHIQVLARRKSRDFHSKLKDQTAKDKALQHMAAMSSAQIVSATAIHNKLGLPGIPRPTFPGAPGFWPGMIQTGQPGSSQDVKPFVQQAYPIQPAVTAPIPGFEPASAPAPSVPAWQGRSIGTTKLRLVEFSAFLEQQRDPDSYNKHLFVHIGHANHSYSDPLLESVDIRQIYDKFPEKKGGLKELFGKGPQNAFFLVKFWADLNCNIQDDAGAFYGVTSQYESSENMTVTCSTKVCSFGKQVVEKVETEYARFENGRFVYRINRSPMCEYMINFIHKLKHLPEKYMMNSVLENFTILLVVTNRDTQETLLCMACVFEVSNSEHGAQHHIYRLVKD
Excerpt: (§2) Thermal shift assay (TSA) is a biophysical method to evaluate stability of proteins with change in temperature. The assay measures thermal denaturation temperature in varying conditions such as different drug concentration. For this example, fluorogenic dye was used that bind to unfolded proteins. SYPRO Orange binds non-specifically to hydrophobic surfaces, and water strongly quenches its fluorescence. When the protein unfolds, the exposed hydrophobic surfaces bind the dye, resulting in an increase in fluorescence by excluding water. Detergent micelles also bind the dye and increase background noise dramatically. Binding of small molecules to proteins leads to a stabilization against to thermal denaturation with the degree of thermal stabilization proportional to the strength of binding.
(§3) The study described in this example investigated the change in melting temperature (ΔTm) of TEAD isoforms 1˜4 when treated with TEAD inhibitors. Compound 1-1-a known strong TEAD1 and weak TEAD2 inhibitor; as well as Compound 1-4-a pan-TEAD inhibitor were used as controls.
(§4) Tris-HCL was dissolved in 5 mL of Cell culture grade water and allowed to dissolve completely. The pH was adjusted to 8 using NaOH. Additional assay buffer components were added in the order listed above. The buffer was mixed slowly.
(§5) Assay buffer was prepared according to the procedures outlined above and dispensed into test wells. Spyro orange was added to a concentration of 5× in the assay buffer, followed by test compound stock solution which was added to a concentration of 10 μM or 30 μM in the assay buffer.
(§6) The melt cycle was performed in Bio-RAD PCR instrument from 20-95° C. with ramp rate of 1° C./min.

TEAD2 = TEAD2 (Homo sapiens, UniProt Q15562); experiment: TEAD thermal shift assay (TSA); assay type: binding
TEAD2, sequence (Q15562 whole entry): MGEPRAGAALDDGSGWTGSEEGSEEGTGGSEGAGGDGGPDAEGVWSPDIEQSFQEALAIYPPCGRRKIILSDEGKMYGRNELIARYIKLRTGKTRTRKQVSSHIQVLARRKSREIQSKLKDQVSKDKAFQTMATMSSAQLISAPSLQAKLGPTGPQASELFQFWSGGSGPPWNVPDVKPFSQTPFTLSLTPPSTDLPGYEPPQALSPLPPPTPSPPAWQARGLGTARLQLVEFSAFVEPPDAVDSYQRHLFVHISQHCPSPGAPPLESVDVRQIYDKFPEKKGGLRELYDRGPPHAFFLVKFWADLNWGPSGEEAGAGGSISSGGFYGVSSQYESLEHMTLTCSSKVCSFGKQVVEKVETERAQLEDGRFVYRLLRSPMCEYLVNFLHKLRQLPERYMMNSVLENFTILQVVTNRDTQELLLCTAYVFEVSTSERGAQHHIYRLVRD
Excerpt: as §2, §3, §4, §5, §6

TEAD3 = TEAD3 (Homo sapiens, UniProt Q99594); experiment: TEAD thermal shift assay (TSA); assay type: binding
TEAD3, sequence (Q99594 whole entry): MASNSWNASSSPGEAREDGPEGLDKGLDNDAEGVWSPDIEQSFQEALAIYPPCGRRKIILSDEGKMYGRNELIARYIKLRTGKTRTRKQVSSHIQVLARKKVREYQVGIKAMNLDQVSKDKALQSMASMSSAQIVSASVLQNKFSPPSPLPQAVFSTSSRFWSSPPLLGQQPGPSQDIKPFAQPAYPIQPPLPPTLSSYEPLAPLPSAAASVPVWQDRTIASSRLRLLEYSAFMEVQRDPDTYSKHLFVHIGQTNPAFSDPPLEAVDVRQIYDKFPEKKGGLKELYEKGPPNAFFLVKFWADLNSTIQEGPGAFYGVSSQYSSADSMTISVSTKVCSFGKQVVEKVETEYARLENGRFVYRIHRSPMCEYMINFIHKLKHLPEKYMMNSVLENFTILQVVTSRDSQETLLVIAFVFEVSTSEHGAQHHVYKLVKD
Excerpt: as §2, §3, §4, §5, §6

TEAD4 = TEAD4 (Homo sapiens, UniProt Q15561); experiment: TEAD thermal shift assay (TSA); assay type: binding
TEAD4, sequence (Q15561 whole entry): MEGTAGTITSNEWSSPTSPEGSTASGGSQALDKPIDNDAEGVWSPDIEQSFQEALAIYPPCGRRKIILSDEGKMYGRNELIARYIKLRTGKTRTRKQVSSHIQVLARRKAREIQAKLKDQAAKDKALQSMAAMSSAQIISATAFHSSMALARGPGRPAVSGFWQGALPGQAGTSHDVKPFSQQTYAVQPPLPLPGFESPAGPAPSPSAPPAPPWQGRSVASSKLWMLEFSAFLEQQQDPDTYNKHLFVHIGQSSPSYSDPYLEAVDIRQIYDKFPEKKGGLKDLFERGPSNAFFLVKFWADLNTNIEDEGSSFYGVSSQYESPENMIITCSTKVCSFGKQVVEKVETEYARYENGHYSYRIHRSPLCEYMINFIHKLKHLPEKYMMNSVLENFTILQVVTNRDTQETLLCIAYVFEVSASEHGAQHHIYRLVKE
Excerpt: as §2, §3, §4, §5, §6

[3] = Homo sapiens, NCI-H226, 144 h, H226-responder cell line
[4] = Homo sapiens, NCI-H23, H23-non-responder cell line
[5] = ratio of protein to compound 1:1
[6] = ratio of protein to compound 1:3

| SMILES | pIC50 (NCI-H226 cells [1]; [3]) | pIC50 (NCI-H226 cells [2]; Homo sapiens, NCI-H226, 144 h) | further results |
| --- | --- | --- | --- |
| C[C@H](NC(=O)c1cnc2c(C3=CCC(C)(C)CC3)cccc2c1)c1ccccn1 [Compound 31, (S)-8-(4,4-dimethylcyclohex-1-en-1-yl)-N-(1-(pyridin-2-yl)ethyl)quinoline-3-carboxamide] | > 6.70 | < 6.00 |  |
| O=C(NCCO)c1cnc2c(C3=CCC(C(F)(F)F)CC3)cccc2c1 (stereo not shown) [Compound 39, N-(2-hydroxyethyl)-8-(4-(trifluoromethyl)cyclohex-1-en-1-yl)quinoline-3-carboxamide] | > 6.70 | > 6.70 |  |
| O=C(NCc1ncco1)c1cnc2c(C3=CCC(C(F)(F)F)CC3)cccc2c1 (single isomer, unassigned) [Compound 12, N-(oxazol-2-ylmethyl)-8-(4-(trifluoromethyl)cyclohex-1-en-1-yl)quinoline-3-carboxamide] | > 6.70 | 6.00 to 6.70 | pIC50 (NCI-H23 cells; [4]): < 6.00 |
| CNC(=O)c1cnc2c(C3=CCC(C(F)(F)F)CC3)cccc2c1 (stereo not shown) [Compound 38, N-methyl-8-(4-(trifluoromethyl)cyclohex-1-en-1-yl)quinoline-3-carboxamide] | > 6.70 | 6.00 to 6.70 |  |
| C[C@H](NC(=O)c1ccc2c(-c3ccc(C(F)(F)F)cc3)cccc2c1)c1cccc(N)n1 [Compound 1-4, reference compound] |  |  | TEAD1 ΔTm (TEAD1; [5]): 10 °C; TEAD1 ΔTm (TEAD1; [6]): 12 °C; thermal shift / binding across TEAD isoforms, in words (TEAD1; summary of Table 14 over TEAD1-4): thermal shifts for all four TEAD isoforms; TEAD2 ΔTm (TEAD2; [5]): 5 °C; TEAD2 ΔTm (TEAD2; [6]): 7 °C; TEAD3 ΔTm (TEAD3; [5]): 5 °C; TEAD3 ΔTm (TEAD3; [6]): 9 °C; TEAD4 ΔTm (TEAD4; [5]): 5 °C; TEAD4 ΔTm (TEAD4; [6]): 9 °C |
| O=C(NCc1ncco1)c1cnc2c(C3=CCC(C(F)(F)F)CC3)cccc2c1 (single isomer, unassigned) [Compound 13, N-(oxazol-2-ylmethyl)-8-(4-(trifluoromethyl)cyclohex-1-en-1-yl)quinoline-3-carboxamide] |  |  | pIC50 (NCI-H226 cells [1]; H226-responder cell line): > 6.70; pIC50 (NCI-H23 cells; H23-non-responder cell line): < 6.00; pIC50 (NCI-H226 cells [2]): > 6.70 |
| COCCNC(=O)c1cnc2c(C3=CCC(C(F)(F)F)CC3)cccc2c1 (stereo not shown) [Compound 40, N-(2-methoxyethyl)-8-(4-(trifluoromethyl)cyclohex-1-en-1-yl)quinoline-3-carboxamide] | > 6.70 | 6.00 to 6.70 |  |
| O=C(NCc1ncco1)c1cnc2c(C3=CCC(F)(F)CC3)cccc2c1 [Compound 29, 8-(4,4-difluorocyclohex-1-en-1-yl)-N-(oxazol-2-ylmethyl)quinoline-3-carboxamide] | 6.00 to 6.70 | < 6.00 |  |
| O=C(NCc1ccccn1)c1cnc2c(C3=CCC(C(F)(F)F)CC3)cccc2c1 (stereo not shown) [Compound 5, N-(pyridin-2-ylmethyl)-8-(4-(trifluoromethyl)cyclohex-1-en-1-yl)quinoline-3-carboxamide] | > 6.70 | > 6.70 | pIC50 (NCI-H23 cells; [4]): < 6.00 |
| C[C@H](NC(=O)c1cnc2c(C3=CCCCC3)cccc2c1)c1ccccn1 [Compound 35, (S)-8-(cyclohex-1-en-1-yl)-N-(1-(pyridin-2-yl)ethyl)quinoline-3-carboxamide] |  | 6.00 to 6.70 |  |
| O=C(NCc1ncco1)c1cnc2c(C3=CCCCC3)cccc2c1 [Compound 37, 8-(cyclohex-1-en-1-yl)-N-(oxazol-2-ylmethyl)quinoline-3-carboxamide] |  | < 6.00 |  |
| CC(C)NC(=O)c1cnc2c(C3=CCC(F)(F)CC3)cccc2c1 [Compound 26, 8-(4,4-difluorocyclohex-1-en-1-yl)-N-isopropylquinoline-3-carboxamide] |  | > 6.70 | pIC50 (NCI-H226 cells [1]; Homo sapiens, NCI-H226, H226-responder cell line): > 6.70 |
| CC(C)NC(=O)c1cnc2c(C3=CCC(C)(C)CC3)cccc2c1 [Compound 30, 8-(4,4-dimethylcyclohex-1-en-1-yl)-N-isopropylquinoline-3-carboxamide] | > 6.70 | > 6.70 |  |
| C[C@@H](CO)NC(=O)c1cnc2c(C3=CCCCC3)cccc2c1 [Compound 36, (S)-8-(cyclohex-1-en-1-yl)-N-(1-hydroxypropan-2-yl)quinoline-3-carboxamide] |  | < 6.00 |  |
| C[C@H](NC(=O)c1cnc2c(C3=CCC(F)(F)CC3)cccc2c1)c1ccccn1 [Compound 27, (S)-8-(4,4-difluorocyclohex-1-en-1-yl)-N-(1-(pyridin-2-yl)ethyl)quinoline-3-carboxamide] | > 6.70 | > 6.70 |  |
